Measurements taken from US8841301B2, “Selective NR2B antagonists” (Bristol-Myers Squibb Company, priority 2011, dated 2014).
Like-named read-outs stand apart in the source and are kept apart here.

Molecular target: hNR2B (Homo sapiens, UniProt Q05586+Q13224)
Assay: Electrophysiology NMDA receptor experiments: two electrode voltage-clamp in Xenopus laevis oocytes expressing GluN1/GluN2 subunits
Type: cell-based
Conditions: oocytes voltage clamped at −40 mV, 50 μM glutamate, 30 μM glycine
Protocol: Electrophysiology NMDA Receptor Experiments.
Stage V and VI oocytes were surgically removed from the ovaries of large, well-fed and healthy Xenopus laevis anesthetized with 3-amino-benzoic acid ethyl ester (3 gm/l). Clusters of isolated oocytes were incubated with 292 U/ml Worthington (Freehold, N.J.) type IV collagenase or 1.3 mg/ml collagenase (Life Technologies, Gaithersburg, Md.; 17018-029) for 2 hr in Ca^2+-free solution comprised of (in mM) 115 NaCl, 2.5 KCl, and 10 HEPES, pH 7.5, with slow agitation to remove the follicular cell layer. Oocytes were then washed in the same solution supplemented with 1.8 mM CaCl2 and maintained in Barth's solution comprised of (in mM): 88 NaCl, 1 KCl, 2.4 NaHCO3, 10 HEPES, 0.82 MgSO4, 0.33 Ca(NO3)2, and 0.91 CaCl2 and supplemented with 100 μg/ml gentamycin, 10 μg/ml streptomycin, and 10 μg/ml penicillin. Oocytes were manually defolliculated and injected within 24 hrs of isolation with 3-5 ng of human GluN1 subunit cRNA and 7-10 ng of human GluN2 cRNA subunit in a 50 nl volume, and incubated in Barth's solution at 18° C. for 2-7 d. Glass injection pipettes had tip sizes ranging from 10-20 microns, and were backfilled with mineral oil. cRNA was synthesized from linearized template cDNA for rat glutamate receptor subunits according to manufacturer specifications (Ambion).
Two electrode voltage-clamp recordings were made 2-7 days post-injection. Oocytes were placed in a dual-track plexiglass recording chamber with a single perfusion line that splits in a Y-configuration to perfuse two oocytes. Dual recordings were made at room temperature (23° C.) using two Warner OC725B two-electrode voltage clamp amplifiers, arranged as recommended by the manufacturer. Glass microelectrodes (1-10 Megaohms) were filled with 300 mM KCl (voltage electrode) or 3 M KCl (current electrode). The bath clamps communicated across silver chloride wires placed into each side of the recording chamber, both of which were assumed to be at a reference potential of 0 mV. Oocytes were perfused with a solution comprised of (in mM) 90 NaCl, 1 KCl, 10 HEPES, […] and 0.5 BaCl2; pH 7.4, adjusted by addition of NaOH. Oocytes were recorded under voltage clamp at −40 mV. Final concentrations for glutamate and glycine were 50 μM and 30 μM, respectively. Concentration-response curves for experimental compounds were obtained by applying in successive fashion maximal glutamate/glycine, followed by glutamate/glycine plus variable concentrations of experimental compounds. Dose response curves consisting of four to eight concentrations were obtained in this manner. The baseline leak current at −40 mV was measured before and after recording, and the full recording linearly corrected for any change in leak current. The level of inhibition by applied experimental compounds was expressed as a percent of the initial glutamate response, and averaged together across oocytes from multiple experiments. Results were pooled, and the average percent responses at antagonist concentrations were fit by the equation, Percent Response=(100−minimum)/(1+([conc]/IC50)^nH)+minimum where minimum is the residual percent response in saturating concentration of the experimental compounds, IC50 is the concentration of antagonist that causes half of the achievable inhibition, and nH is a slope factor describing steepness of the inhibition curve. […]
For NMDA receptor subtype selectivity experiments human GluN1/GluN2A, GluN1/GluN2C, and GluN1/GluN2D cRNAs were expressed in Xenopus laevis as described above. Here, 10 μM concentrations of the antagonist was perfused with 50 μM glutamate and 30 μM glycine onto the oocyte for two min and the remaining current in the presence of the antagonist was compared to the maximal current obtained with 50 μM glutamate and 30 μM glycine alone (defined as 100%). When IC50 determinations were made against other NMDA receptor subtypes the protocol as described above was followed. […]

Sequence of hNR2B (Q13224 27-1484, other chains not shown): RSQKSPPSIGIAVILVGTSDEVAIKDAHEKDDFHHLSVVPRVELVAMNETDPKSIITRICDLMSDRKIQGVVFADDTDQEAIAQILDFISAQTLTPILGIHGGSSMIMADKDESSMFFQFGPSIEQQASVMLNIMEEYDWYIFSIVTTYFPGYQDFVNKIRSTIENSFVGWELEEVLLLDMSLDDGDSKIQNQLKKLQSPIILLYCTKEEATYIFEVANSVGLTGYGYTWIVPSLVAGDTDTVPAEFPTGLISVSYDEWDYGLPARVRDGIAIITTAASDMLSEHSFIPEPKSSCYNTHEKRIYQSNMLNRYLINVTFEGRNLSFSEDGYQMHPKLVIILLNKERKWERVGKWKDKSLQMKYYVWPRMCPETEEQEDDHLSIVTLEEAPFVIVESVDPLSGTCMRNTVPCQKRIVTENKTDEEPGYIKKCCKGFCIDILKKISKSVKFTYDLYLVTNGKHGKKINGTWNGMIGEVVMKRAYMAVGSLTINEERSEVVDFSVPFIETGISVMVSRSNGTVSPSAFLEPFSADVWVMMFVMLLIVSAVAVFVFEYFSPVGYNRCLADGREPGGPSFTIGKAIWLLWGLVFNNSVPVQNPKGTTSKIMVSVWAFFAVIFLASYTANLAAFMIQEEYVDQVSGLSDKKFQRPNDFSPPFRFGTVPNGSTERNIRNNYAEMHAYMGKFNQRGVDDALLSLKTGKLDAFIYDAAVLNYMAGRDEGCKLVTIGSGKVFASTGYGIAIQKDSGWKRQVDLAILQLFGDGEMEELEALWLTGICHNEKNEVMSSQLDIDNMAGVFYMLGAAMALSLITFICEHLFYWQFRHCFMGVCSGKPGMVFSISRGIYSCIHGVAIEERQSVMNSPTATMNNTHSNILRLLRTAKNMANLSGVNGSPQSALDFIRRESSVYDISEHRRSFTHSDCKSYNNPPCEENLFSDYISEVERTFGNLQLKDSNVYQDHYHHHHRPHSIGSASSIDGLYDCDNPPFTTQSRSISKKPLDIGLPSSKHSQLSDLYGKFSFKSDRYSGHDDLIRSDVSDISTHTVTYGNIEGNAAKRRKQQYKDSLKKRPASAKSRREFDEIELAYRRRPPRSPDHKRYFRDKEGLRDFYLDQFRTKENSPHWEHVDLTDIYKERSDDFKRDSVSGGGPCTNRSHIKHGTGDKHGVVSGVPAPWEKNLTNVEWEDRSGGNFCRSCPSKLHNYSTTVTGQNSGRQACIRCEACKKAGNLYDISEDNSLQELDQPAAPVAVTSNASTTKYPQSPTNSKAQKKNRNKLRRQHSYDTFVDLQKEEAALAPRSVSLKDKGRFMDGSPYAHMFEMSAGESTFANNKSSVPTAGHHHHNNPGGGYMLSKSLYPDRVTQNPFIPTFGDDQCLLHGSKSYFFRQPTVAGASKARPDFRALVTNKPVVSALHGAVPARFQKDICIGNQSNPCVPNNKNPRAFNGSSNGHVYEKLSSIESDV

Compound | IC50 (read-out: Rating (hNR2B IC50)) [nM] | IC50 (read-out: hNR2B IC50) [nM]
COc1ccc(Nc2ncc(COc3ccc4[nH]c(=O)ccc4c3)cn2)cc1 [Example 24] | < 200 | 90
O=c1ccc2cc(OCc3ccc(Nc4ccc(OC(F)F)cc4)nc3)ccc2[nH]1 [Example 3] | < 200 | 
O=c1ccc2cc(OCc3cnc(Nc4ccc(OC(F)(F)F)cc4)nc3)ccc2[nH]1 [Example 23] | < 200 | 
O=C1CCc2cc(OCc3ccc(Nc4ccc(OC(F)(F)F)cc4)nc3)cc(F)c2N1 [Example 6] | 1000 to 10000 | 
COc1ccc(Nc2ncc(COc3ccc4[nH]c(=O)ccc4c3)cn2)cc1C [Example 46] | < 200 | 
O=c1ccc2cc(OCc3ccc(NCc4ccc(F)c(F)c4)nc3)ccc2[nH]1 [Example 5] | 201 to 1000 | 
Oc1ccc(OCc2cnc(Nc3ccc(Cl)cc3)nc2)cc1 [Example 12, 4-((2-(4-chlorophenylamino)pyrimidin-5-yl)methoxy)phenol] |  | 394
O=c1ccc2cc(OCc3ccc(NCc4ccc(OC(F)F)cc4)nc3)ccc2[nH]1 [Example 4] | > 10000 | 
O=c1ccc2cc(OCc3cnc(NCc4ccc(Cl)c(Cl)c4)nc3)ccc2[nH]1 [Example 21] | > 10000 | 
O=c1ccc2cc(OCc3ccc(NCc4cccc(Cl)c4)nc3)ccc2[nH]1 [Example 8] | 1000 to 10000 | 
O=c1ccc2cc(OCc3cnc(Nc4ccc(OC(F)F)c(Cl)c4)nc3)ccc2[nH]1 [Example 35] | < 200 | 
Cc1nc(Nc2ccc(OC(F)F)cc2)ncc1COc1ccc2[nH]c(=O)ccc2c1 [Example 52] | < 200 | 
COc1ncc(Nc2ncc(COc3ccc4[nH]c(=O)ccc4c3)cn2)cc1C [Example 49] | < 200 | 
O=c1ccc2cc(OCc3ccc(NCc4ccc(F)cc4)nc3)ccc2[nH]1 [Example 7] | < 200 | 
CC(C)(C)c1ccc(Nc2ncc(COc3ccc4[nH]c(=O)ccc4c3)cn2)cc1 [Example 47] | < 200 | 
CCc1ccc(Nc2ncc(COc3ccc4[nH]c(=O)ccc4c3)cn2)cc1F [Example 39] | < 200 | 
O=c1ccc2cc(OCc3cnc(NCc4ccc(F)c(F)c4)nc3)ccc2[nH]1 [Example 26] | < 200 | 139
COc1cc(Nc2ncc(COc3ccc4[nH]c(=O)ccc4c3)cn2)ccc1F [Example 33] | 1000 to 10000 | 
O=c1ccc2cc(OCc3cnc(NCc4ccc(Cl)cc4)nc3)ccc2[nH]1 [Example 19] | < 200 | 
O=c1ccc2cc(OCc3cnc(Nc4ccc(F)c(F)c4)nc3)ccc2[nH]1 [Example 31] | < 200 | 
O=c1ccc2cc(OCc3cnc(Nc4ccc(OC(F)F)cc4)nc3)ccc2[nH]1 [Example 22] | < 200 | 
O=c1ccc2cc(OCc3cnc(NCc4ccc(F)cc4)nc3)ccc2[nH]1 [Example 27] | < 200 | 62
O=c1ccc2cc(OCc3cccc(Nc4ccc(Cl)cc4)n3)ccc2[nH]1 [Example 11] | < 200 | 
O=c1ccc2cc(OCc3cnc(Nc4ccc(OC(F)F)c(F)c4)nc3)ccc2[nH]1 [Example 37] | < 200 | 
O=c1ccc2cc(OCc3cnc(Nc4ccc(F)c(Cl)c4)nc3)ccc2[nH]1 [Example 32] | 201 to 1000 | 
CCCc1ccc(Nc2ncc(COc3ccc4[nH]c(=O)ccc4c3)cn2)cc1 [Example 43] | < 200 | 

Now from value to compound:

IC50 (read-out: Rating (hNR2B IC50)) [nM] | IC50 (read-out: hNR2B IC50) [nM] | Compound
< 200 |  | Cc1cc(Nc2ncc(COc3ccc4[nH]ncc4c3)cn2)ccc1OC(F)F [Example 76]
< 200 |  | FC(F)Oc1ccc(Nc2ncc(COc3cnc4[nH]ccc4c3)cn2)cc1Cl [Example 90]
1000 to 10000 |  | CC1(C)OC(=O)Nc2ccc(CCc3cnc(Nc4ccc(OC(F)F)c(F)c4)nc3)cc21 [Example 148]
< 200 |  | Cc1cc(Nc2ncc(COc3ccc4c(c3)CC(=O)N4)cn2)ccc1OC(F)F [Example 86]
< 200 |  | O=c1ccc2cc(OCc3cnc(Nc4ccc(OC(F)F)cc4)nc3C(F)(F)F)ccc2[nH]1 [Example 53]
< 200 |  | O=c1[nH]c2ccc(OCc3cnc(Nc4ccc(OC(F)(F)F)cc4)nc3)cc2s1 [Example 71]
1000 to 10000 |  | O=c1ccc2cc(OCc3cncc(NCc4ccc(Cl)c(Cl)c4)n3)ccc2[nH]1 [Example 101]
< 200 |  | FC(F)(F)Oc1ccc(Nc2ncc(COc3ccc4[nH]ncc4c3)cn2)cc1 [Example 56]
< 200 |  | Cc1cc(Nc2ncc(COc3ccc4c(c3)COC(=O)N4)cn2)ccc1OC(F)F [Example 82]
 | 2.5 | O=c1ccc2cc(CCc3cnc(Nc4ccc(OC(F)F)c(Cl)c4)nc3)ccc2[nH]1 [Example 105, 6-(2-(2-(3-chloro-4-(difluoromethoxy)phenylamino)pyrimidin-5-yl)ethyl)quinolin-2(1H)-one]
< 200 |  | FC(F)Oc1ccc(Nc2ncc(COc3ccc4[nH]ncc4c3Cl)cn2)cc1 [Example 66]
< 200 |  | Cc1cc(Nc2ncc(COc3ccc(Nc4nccs4)cc3)cn2)ccc1OC(F)F [Example 87]
> 10000 |  | CC1(C)OC(=O)Nc2ccc(CCc3cnc(Nc4ccc(OC(F)F)cc4)nc3)cc21 [Example 138]
> 10000 |  | N#Cc1n[nH]c2ccc(CCc3cnc(Nc4ccc(OC(F)F)cc4)nc3)cc12 [Example 124]
< 200 |  | Fc1cc(Nc2ncc(COc3ccc(Nc4nccs4)cc3)cn2)ccc1OC(F)F [Example 91]
 | > 3000 | O=c1ccc2cc(OCc3cnc(Nc4ccc(Cl)c(Cl)c4)cn3)ccc2[nH]1 [Example 98, 6-((5-(3,4-dichlorophenylamino)pyrazin-2-yl)methoxy)quinolin-2(1H)-one]
< 200 |  | O=c1ccc2cc(CCc3cnc(Nc4ccc(OC(F)F)cc4)nc3)cnc2[nH]1 [Example 155]

IC50 (read-out: Rating (hNR2B IC50)) [nM] | IC50 (read-out: hNR2B IC50) [nM] | Compound
< 200 |  | O=C1Cc2cc(OCc3cnc(Nc4ccc(OC(F)F)c(F)c4)nc3)ccc2N1 [Example 85]
1000 to 10000 |  | FC(F)Oc1ccc(Nc2ncc(CCc3cccc4[nH]ncc34)cn2)cc1 [Example 111]
 | 4600 | O=c1ccc2cc(Oc3ccc(NCc4ccc(OC(F)(F)F)cc4)nn3)ccc2[nH]1 [Example 102, 6-(6-(4-(trifluoromethoxy)benzylamino)pyridazin-3-yloxy)quinolin-2(1H)-one]
201 to 1000 |  | CCc1ccc(Nc2ncc(CCc3ccc4[nH]ncc4c3)cn2)cc1 [Example 127]
< 200 |  | FC(F)(F)Oc1ccc(Nc2ncc(COc3ccc4[nH]ncc4c3Cl)cn2)cc1 [Example 64]
 | 183 | FC(F)Oc1ccc(Nc2ncc(CCc3ccc4[nH]ncc4c3)cn2)cc1Cl [Example 104, 5-(2-(1H-indazol-5-yl)ethyl)-N-(3-chloro-4-(difluoromethoxy)phenyl)pyrimidin-2-amine]
< 200 |  | FC(F)Oc1ccc(Nc2ncc(COc3ccc4[nH]cnc4c3)cn2)cc1 [Example 60]
< 200 |  | FC(F)Oc1ccc(Nc2ncc(COc3ccc4[nH]ncc4c3)cn2)cc1 [Example 57]
201 to 1000 |  | O=c1ccc2cc(OCc3cncc(NCc4ccc(Cl)cc4)n3)ccc2[nH]1 [Example 100]
< 200 |  | FC(F)Oc1ccc(Nc2ncc(COc3cn[nH]c3)cn2)cc1 [Example 63]
< 200 |  | Cc1cc(Nc2ncc(CCc3ccc4c(c3)COC(=O)N4)cn2)ccc1OC(F)F [Example 145]
< 200 |  | CC(Cc1cnc(Nc2ccc(OC(F)F)cc2)nc1)c1ccc2[nH]c(=O)ccc2c1 (centres unmarked) [Example 122]
< 200 |  | Oc1ccc(CCc2cnc(Nc3ccc(OC(F)F)cc3)nc2)cc1 [Example 150]
< 200 |  | Cc1cc(Nc2ncc(CCc3cnc4[nH]ncc4c3)cn2)ccc1OC(F)F [Example 153]
> 10000 |  | FC(F)Oc1ccc(Nc2ncc(C3CC3c3cccc4[nH]ncc34)cn2)cc1 (centres unmarked) [Example 117]
< 200 |  | O=c1ccc2cc(CCc3cnc(Nc4ccc(OC(F)(F)F)cc4)nc3)ccc2[nH]1 [Example 108]
